From PubChem BioAssay (NCI)
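All cell lines were grown in 96-well plates and treated with compound for 48 hours. TGI: total growth inhibition.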

What was measured:
Experiment in all cases: DTP human tumour cell line panel, 48 h
786-0 renal = system: 786-0 renal
A498 renal = system: A498 renal
ACHN renal = system: ACHN renal
BT-549 breast = system: BT-549 breast
CAKI-1 renal = system: CAKI-1 renal
CCRF-CEM leukemia = system: CCRF-CEM leukemia
COLO 205 colon = system: COLO 205 colon
DU-145 prostate = system: DU-145 prostate
EKVX NSCLC = system: EKVX NSCLC
HCC-2998 colon = system: HCC-2998 colon
HCT-116 colon = system: HCT-116 colon
HCT-15 colon = system: HCT-15 colon
HL-60(TB) leukemia = system: HL-60(TB) leukemia
HOP-62 NSCLC = system: HOP-62 NSCLC
HOP-92 NSCLC = system: HOP-92 NSCLC
HS 578T breast = system: HS 578T breast
HT29 colon = system: HT29 colon
IGROV1 ovarian = system: IGROV1 ovarian
KM12 colon = system: KM12 colon
LOX IMVI melanoma = system: LOX IMVI melanoma
M14 melanoma = system: M14 melanoma
MALME-3M melanoma = system: MALME-3M melanoma
MCF7 breast = system: MCF7 breast
MDA-MB-231 breast = system: MDA-MB-231 breast
MDA-MB-435 = system: MDA-MB-435
MDA-N = system: MDA-N
MOLT-4 leukemia = system: MOLT-4 leukemia
NCI-H226 lung = system: NCI-H226 lung
NCI-H23 lung = system: NCI-H23 lung
NCI-H460 lung = system: NCI-H460 lung
NCI-H522 lung = system: NCI-H522 lung
NCI/ADR-RES ovarian = system: NCI/ADR-RES ovarian
OVCAR-3 ovarian = system: OVCAR-3 ovarian
OVCAR-4 ovarian = system: OVCAR-4 ovarian
OVCAR-5 ovarian = system: OVCAR-5 ovarian
OVCAR-8 ovarian = system: OVCAR-8 ovarian
RPMI-8226 leukemia = system: RPMI-8226 leukemia
SF-268 CNS = system: SF-268 CNS
SF-295 CNS = system: SF-295 CNS
SF-539 CNS = system: SF-539 CNS
SK-MEL-28 melanoma = system: SK-MEL-28 melanoma
SK-MEL-5 melanoma = system: SK-MEL-5 melanoma
SK-OV-3 ovarian = system: SK-OV-3 ovarian
SN12C renal = system: SN12C renal
SNB-19 CNS = system: SNB-19 CNS
SNB-75 CNS = system: SNB-75 CNS
SR leukemia = system: SR leukemia
SW-620 colon = system: SW-620 colon
T-47D breast = system: T-47D breast
TK-10 renal = system: TK-10 renal
U251 CNS = system: U251 CNS
UACC-257 melanoma = system: UACC-257 melanoma
UACC-62 melanoma = system: UACC-62 melanoma
UO-31 renal = system: UO-31 renal

Measured: TGI

CC(=O)NNc1nc(C)c(C(=O)/C=C/C=C/c2ccccc2)s1
> 100 µM: all assays above
